Test results: ChEMBL document CHEMBL5143585, “Discovery and characterization of benzyloxy piperidine based dopamine 4 receptor antagonists” (Bioorg Med Chem Lett, 2022)
pIC50, pKi: −log10 of the molar value.

System: not listed separately
Test: Protein binding in human plasma assessed as unbound fraction
Assay type: ADME, cell-free
Conditions: not given

Fu	SMILES
3.9%	Fc1ccc(CO[C@H]2CCCN(Cc3ncn4ccccc34)C2)cc1F
1.1%	COc1ccc(CN2CCC[C@H](OCc3ccc(F)c(F)c3)C2)cc1F
0.2%	Fc1ccc(CO[C@H]2CCCN(Cc3cn4ccccc4n3)C2)cc1F

Second part, the molecule before the results:

SMILES	Fu
Fc1cccc(COC2CCN(Cc3cn4ccccc4n3)CC2)c1	7%
Fc1cc(COC2CCN(Cc3ncc4ccccn34)CC2)ccc1Cl	1%
FC(F)(F)c1cccc(COC2CCN(Cc3cn4ccccc4n3)CC2)c1	1.8%
Cn1ncc2cc(CN3CCC(OCc4ccc(Cl)c(F)c4)CC3)ccc21	0.9%
Fc1cccc(COC2CCN(Cc3ncn4ccccc34)CC2)c1	2.3%
Cc1nc(CN2CCC(OCc3ccc(Cl)c(F)c3)CC2)c2ccccn12	7.1%

System: not listed separately
Test: Protein binding in mouse plasma assessed as unbound fraction
Assay type: ADME, cell-free
Conditions: not given

Fu	SMILES
18.1%	Fc1ccc(CO[C@H]2CCCN(Cc3ncn4ccccc34)C2)cc1F
2.6%	COc1ccc(CN2CCC[C@H](OCc3ccc(F)c(F)c3)C2)cc1F
8.7%	Fc1ccc(CO[C@H]2CCCN(Cc3cn4ccccc4n3)C2)cc1F

More lines, now with the values behind:

SMILES	Fu
Fc1cccc(COC2CCN(Cc3cn4ccccc4n3)CC2)c1	35.5%
Fc1cc(COC2CCN(Cc3ncc4ccccn34)CC2)ccc1Cl	1.7%
FC(F)(F)c1cccc(COC2CCN(Cc3cn4ccccc4n3)CC2)c1	17.1%
Cn1ncc2cc(CN3CCC(OCc4ccc(Cl)c(F)c4)CC3)ccc21	5.2%
Fc1cccc(COC2CCN(Cc3ncn4ccccc34)CC2)c1	40.5%
Cc1nc(CN2CCC(OCc3ccc(Cl)c(F)c3)CC2)c2ccccn12	13.2%

Target: T1, D(4) dopamine receptor (Homo sapiens) (UniProt P21917)
T1 sequence (whole entry): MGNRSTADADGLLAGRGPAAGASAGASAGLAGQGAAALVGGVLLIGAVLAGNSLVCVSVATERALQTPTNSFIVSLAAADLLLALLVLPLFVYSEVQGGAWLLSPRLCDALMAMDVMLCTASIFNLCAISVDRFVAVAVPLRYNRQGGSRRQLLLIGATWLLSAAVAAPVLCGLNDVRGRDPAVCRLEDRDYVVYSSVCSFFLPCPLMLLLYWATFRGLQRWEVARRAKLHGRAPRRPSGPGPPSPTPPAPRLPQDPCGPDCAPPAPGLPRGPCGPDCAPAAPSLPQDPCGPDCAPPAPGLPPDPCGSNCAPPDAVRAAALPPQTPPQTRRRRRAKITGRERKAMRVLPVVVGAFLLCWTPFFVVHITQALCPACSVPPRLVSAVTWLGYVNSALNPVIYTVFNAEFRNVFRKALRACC
Test: Displacement of [3H]N-methylspiperone from human D4 receptor expressed in HEK293 cell membrane at 10 uM by competitive inhibition based analysis
Assay type: cell membranes
Conditions: not given

inhibition	SMILES
22.5%	Cc1cccc(CO[C@H]2CCCN(Cc3cn4ccccc4n3)C2)n1

Same assay, conditions: filed as antagonist

inhibition	SMILES
48%	Cn1cnc2cc(CN3CCC(OCc4ccc(Cl)c(F)c4)CC3)ccc21

Target: D(2) dopamine receptor (Homo sapiens) (UniProt P14416)
Test: Displacement of [3H]N-methylspiperone from human D2 receptor expressed in HEK293 cell membrane at 10 uM by competitive inhibition based analysis
Assay type: cell membranes
Conditions: not given

Sequence of D(2) dopamine receptor (Homo sapiens) (P14416 whole entry): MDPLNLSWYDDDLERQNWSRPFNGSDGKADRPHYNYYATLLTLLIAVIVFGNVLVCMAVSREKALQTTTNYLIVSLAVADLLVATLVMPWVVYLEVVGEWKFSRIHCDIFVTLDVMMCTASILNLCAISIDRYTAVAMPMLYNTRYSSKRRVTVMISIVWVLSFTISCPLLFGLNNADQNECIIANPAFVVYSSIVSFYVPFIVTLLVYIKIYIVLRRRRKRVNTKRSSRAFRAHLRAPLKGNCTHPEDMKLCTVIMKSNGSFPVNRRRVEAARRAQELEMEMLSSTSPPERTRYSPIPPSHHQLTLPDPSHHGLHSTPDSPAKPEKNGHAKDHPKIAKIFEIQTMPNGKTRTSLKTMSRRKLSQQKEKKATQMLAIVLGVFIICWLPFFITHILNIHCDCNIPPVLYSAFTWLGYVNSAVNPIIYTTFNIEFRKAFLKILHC

inhibition	SMILES
< 50%	Cc1ccc(CO[C@H]2CCCN(Cc3ccc(C#N)cc3)C2)cc1
< 50%	COc1ccc(CN2CCC[C@H](OCc3ccccc3C)C2)cc1F
< 50%	Fc1ccc(CO[C@H]2CCCN(Cc3ncn4ccccc34)C2)cc1F
< 50%	Cc1ccccc1CO[C@H]1CCCN(Cc2cn3ccccc3n2)C1
< 50%	Cc1cccc(CO[C@H]2CCCN(Cc3cc4ccc(Cl)cc4[nH]3)C2)n1
< 50%	COc1ccc(CN2CCC[C@H](OCc3ccc(F)c(F)c3)C2)cc1F
< 50%	Cc1ccc(CO[C@H]2CCCN(Cc3ccc(Cl)c(Cl)c3)C2)cc1
< 50%	Fc1ccc(CO[C@H]2CCCN(Cc3cn4ccccc4n3)C2)cc1F

Continued, molecule first:

SMILES	inhibition
Fc1ccc(COC2CCN(Cc3ncc4ccccn34)CC2)cc1F	< 50%
Cc1cccc(CO[C@H]2CCCN(Cc3cn4ccccc4n3)C2)n1	< 50%
Fc1cccc(COC2CCN(Cc3cn4ccccc4n3)CC2)c1	< 50%
Fc1cc(COC2CCN(Cc3ncc4ccccn34)CC2)ccc1Cl	< 50%
FC(F)(F)c1cccc(COC2CCN(Cc3cn4ccccc4n3)CC2)c1	< 50%
Cn1ncc2cc(CN3CCC(OCc4ccc(Cl)c(F)c4)CC3)ccc21	< 50%
Fc1cccc(COC2CCN(Cc3ncn4ccccc34)CC2)c1	< 50%
Cc1nc(CN2CCC(OCc3ccc(Cl)c(F)c3)CC2)c2ccccn12	< 50%

Target: D(3) dopamine receptor (Homo sapiens, UniProt P35462)
Test: Displacement of [3H]N-methylspiperone from human D3 receptor expressed in HEK293 cell membrane at 10 uM by competitive inhibition based analysis
Assay type: cell membranes
Conditions: not given

Sequence of D(3) dopamine receptor (P35462 whole entry): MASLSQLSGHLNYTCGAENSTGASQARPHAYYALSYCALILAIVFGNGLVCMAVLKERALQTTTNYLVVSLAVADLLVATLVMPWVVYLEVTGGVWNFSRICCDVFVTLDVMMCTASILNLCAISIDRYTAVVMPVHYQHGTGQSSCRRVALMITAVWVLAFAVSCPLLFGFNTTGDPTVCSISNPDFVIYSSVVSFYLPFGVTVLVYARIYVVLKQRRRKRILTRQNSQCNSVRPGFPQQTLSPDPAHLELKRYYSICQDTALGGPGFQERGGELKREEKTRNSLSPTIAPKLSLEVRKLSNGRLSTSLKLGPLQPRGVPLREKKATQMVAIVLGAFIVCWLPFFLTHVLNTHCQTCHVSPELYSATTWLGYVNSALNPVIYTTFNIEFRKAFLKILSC

inhibition	SMILES
< 50%	Cc1ccc(CO[C@H]2CCCN(Cc3ccc(C#N)cc3)C2)cc1
< 50%	COc1ccc(CN2CCC[C@H](OCc3ccccc3C)C2)cc1F
< 50%	Fc1ccc(CO[C@H]2CCCN(Cc3ncn4ccccc34)C2)cc1F
< 50%	Cc1ccccc1CO[C@H]1CCCN(Cc2cn3ccccc3n2)C1
< 50%	Cc1cccc(CO[C@H]2CCCN(Cc3cc4ccc(Cl)cc4[nH]3)C2)n1
< 50%	COc1ccc(CN2CCC[C@H](OCc3ccc(F)c(F)c3)C2)cc1F
< 50%	Cc1ccc(CO[C@H]2CCCN(Cc3ccc(Cl)c(Cl)c3)C2)cc1
< 50%	Fc1ccc(CO[C@H]2CCCN(Cc3cn4ccccc4n3)C2)cc1F

Second part, the molecule before the results:

SMILES	inhibition
Fc1ccc(COC2CCN(Cc3ncc4ccccn34)CC2)cc1F	< 50%
Cc1cccc(CO[C@H]2CCCN(Cc3cn4ccccc4n3)C2)n1	< 50%
Fc1cccc(COC2CCN(Cc3cn4ccccc4n3)CC2)c1	< 50%
Fc1cc(COC2CCN(Cc3ncc4ccccn34)CC2)ccc1Cl	< 50%
FC(F)(F)c1cccc(COC2CCN(Cc3cn4ccccc4n3)CC2)c1	< 50%
Cn1ncc2cc(CN3CCC(OCc4ccc(Cl)c(F)c4)CC3)ccc21	< 50%
Fc1cccc(COC2CCN(Cc3ncn4ccccc34)CC2)c1	< 50%
Cc1nc(CN2CCC(OCc3ccc(Cl)c(F)c3)CC2)c2ccccn12	< 50%

Target: D(1A) dopamine receptor (Homo sapiens, UniProt P21728)
Test: Displacement of [3H]-SCH23390 from human D1 receptor expressed in HEK293 cell membrane at 10 uM by competitive inhibition based analysis
Assay type: cell membranes
Conditions: not given

Sequence of D(1A) dopamine receptor (P21728 whole entry): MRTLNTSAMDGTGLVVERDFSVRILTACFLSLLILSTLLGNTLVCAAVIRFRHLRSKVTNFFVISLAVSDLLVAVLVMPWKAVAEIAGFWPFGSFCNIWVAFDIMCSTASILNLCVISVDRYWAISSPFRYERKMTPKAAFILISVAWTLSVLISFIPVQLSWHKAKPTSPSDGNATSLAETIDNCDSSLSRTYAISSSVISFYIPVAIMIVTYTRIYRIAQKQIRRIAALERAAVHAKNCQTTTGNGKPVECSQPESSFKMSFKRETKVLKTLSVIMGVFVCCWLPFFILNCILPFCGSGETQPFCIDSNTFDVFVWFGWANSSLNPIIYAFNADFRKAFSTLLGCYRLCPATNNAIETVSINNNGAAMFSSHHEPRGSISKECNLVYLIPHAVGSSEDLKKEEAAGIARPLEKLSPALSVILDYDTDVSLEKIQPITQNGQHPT

inhibition	SMILES
< 50%	Cc1ccc(CO[C@H]2CCCN(Cc3ccc(C#N)cc3)C2)cc1
< 50%	COc1ccc(CN2CCC[C@H](OCc3ccccc3C)C2)cc1F
< 50%	Fc1ccc(CO[C@H]2CCCN(Cc3ncn4ccccc34)C2)cc1F
< 50%	Cc1ccccc1CO[C@H]1CCCN(Cc2cn3ccccc3n2)C1
< 50%	Cc1cccc(CO[C@H]2CCCN(Cc3cc4ccc(Cl)cc4[nH]3)C2)n1
< 50%	COc1ccc(CN2CCC[C@H](OCc3ccc(F)c(F)c3)C2)cc1F
< 50%	Cc1ccc(CO[C@H]2CCCN(Cc3ccc(Cl)c(Cl)c3)C2)cc1
< 50%	Fc1ccc(CO[C@H]2CCCN(Cc3cn4ccccc4n3)C2)cc1F

More lines, now with the values behind:

SMILES	inhibition
Fc1ccc(COC2CCN(Cc3ncc4ccccn34)CC2)cc1F	< 50%
Cc1cccc(CO[C@H]2CCCN(Cc3cn4ccccc4n3)C2)n1	< 50%
Fc1cccc(COC2CCN(Cc3cn4ccccc4n3)CC2)c1	< 50%
Fc1cc(COC2CCN(Cc3ncc4ccccn34)CC2)ccc1Cl	< 50%
FC(F)(F)c1cccc(COC2CCN(Cc3cn4ccccc4n3)CC2)c1	< 50%
Cn1ncc2cc(CN3CCC(OCc4ccc(Cl)c(F)c4)CC3)ccc21	< 50%
Fc1cccc(COC2CCN(Cc3ncn4ccccc34)CC2)c1	< 50%
Cc1nc(CN2CCC(OCc3ccc(Cl)c(F)c3)CC2)c2ccccn12	< 50%

Target: T2, D(4) dopamine receptor (Homo sapiens, UniProt P21917)
T2 sequence (P21917 whole entry): T1 sequence (whole entry)
Test: Displacement of [3H]N-methylspiperone from human D4 receptor expressed in HEK293 cell membrane by competitive inhibition based analysis
Assay type: cell membranes
Conditions: not given

pIC50	pKi	SMILES
5.99	5.99	Cc1ccc(CO[C@H]2CCCN(Cc3ccc(C#N)cc3)C2)cc1
6.46	6.46	COc1ccc(CN2CCC[C@H](OCc3ccccc3C)C2)cc1F
6.35	6.35	Fc1ccc(CO[C@H]2CCCN(Cc3ncn4ccccc34)C2)cc1F
5.74	5.74	Cc1ccccc1CO[C@H]1CCCN(Cc2cn3ccccc3n2)C1
6.50	6.50	Cc1cccc(CO[C@H]2CCCN(Cc3cc4ccc(Cl)cc4[nH]3)C2)n1
6.77	6.77	COc1ccc(CN2CCC[C@H](OCc3ccc(F)c(F)c3)C2)cc1F
5.86	5.86	Cc1ccc(CO[C@H]2CCCN(Cc3ccc(Cl)c(Cl)c3)C2)cc1
6.43	6.43	Fc1ccc(CO[C@H]2CCCN(Cc3cn4ccccc4n3)C2)cc1F

The next lines start with the molecule.

SMILES	pIC50	pKi
Fc1ccc(COC2CCN(Cc3ncc4ccccn34)CC2)cc1F	6.67	6.67
Fc1cccc(COC2CCN(Cc3cn4ccccc4n3)CC2)c1	6.78	6.78
Fc1cc(COC2CCN(Cc3ncc4ccccn34)CC2)ccc1Cl	6.80	6.80
FC(F)(F)c1cccc(COC2CCN(Cc3cn4ccccc4n3)CC2)c1	6.78	6.78
Cn1ncc2cc(CN3CCC(OCc4ccc(Cl)c(F)c4)CC3)ccc21	6.77	6.77
Fc1cccc(COC2CCN(Cc3ncn4ccccc34)CC2)c1	6.78	6.78
Cc1nc(CN2CCC(OCc3ccc(Cl)c(F)c3)CC2)c2ccccn12	7.02	7.02

Target: D(1B) dopamine receptor (Homo sapiens, UniProt P21918)
Test: Displacement of [3H]-SCH23390 from human D5 receptor expressed in HEK293 cell membrane at 10 uM by competitive inhibition based analysis
Assay type: cell membranes
Conditions: not given

Sequence of D(1B) dopamine receptor (P21918 whole entry): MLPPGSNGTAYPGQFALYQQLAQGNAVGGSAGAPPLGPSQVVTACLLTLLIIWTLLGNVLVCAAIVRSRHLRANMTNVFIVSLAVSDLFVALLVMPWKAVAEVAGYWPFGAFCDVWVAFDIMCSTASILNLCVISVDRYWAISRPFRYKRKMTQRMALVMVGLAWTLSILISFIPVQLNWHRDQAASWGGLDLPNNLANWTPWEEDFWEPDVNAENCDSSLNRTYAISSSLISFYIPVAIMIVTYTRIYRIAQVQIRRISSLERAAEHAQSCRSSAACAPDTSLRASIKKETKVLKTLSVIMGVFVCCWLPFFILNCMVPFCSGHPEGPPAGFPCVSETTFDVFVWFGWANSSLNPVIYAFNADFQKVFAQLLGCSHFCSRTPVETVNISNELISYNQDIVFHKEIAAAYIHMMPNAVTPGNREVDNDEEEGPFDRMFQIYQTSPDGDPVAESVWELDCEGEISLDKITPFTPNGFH

inhibition	SMILES
< 50%	Cc1ccc(CO[C@H]2CCCN(Cc3ccc(C#N)cc3)C2)cc1
< 50%	COc1ccc(CN2CCC[C@H](OCc3ccccc3C)C2)cc1F
< 50%	Fc1ccc(CO[C@H]2CCCN(Cc3ncn4ccccc34)C2)cc1F
< 50%	Cc1ccccc1CO[C@H]1CCCN(Cc2cn3ccccc3n2)C1
< 50%	Cc1cccc(CO[C@H]2CCCN(Cc3cc4ccc(Cl)cc4[nH]3)C2)n1
< 50%	COc1ccc(CN2CCC[C@H](OCc3ccc(F)c(F)c3)C2)cc1F
< 50%	Cc1ccc(CO[C@H]2CCCN(Cc3ccc(Cl)c(Cl)c3)C2)cc1
< 50%	Fc1ccc(CO[C@H]2CCCN(Cc3cn4ccccc4n3)C2)cc1F

More lines, now with the values behind:

SMILES	inhibition
Fc1ccc(COC2CCN(Cc3ncc4ccccn34)CC2)cc1F	< 50%
Cc1cccc(CO[C@H]2CCCN(Cc3cn4ccccc4n3)C2)n1	< 50%
Fc1cccc(COC2CCN(Cc3cn4ccccc4n3)CC2)c1	< 50%
Fc1cc(COC2CCN(Cc3ncc4ccccn34)CC2)ccc1Cl	< 50%
FC(F)(F)c1cccc(COC2CCN(Cc3cn4ccccc4n3)CC2)c1	< 50%
Cn1ncc2cc(CN3CCC(OCc4ccc(Cl)c(F)c4)CC3)ccc21	< 50%
Fc1cccc(COC2CCN(Cc3ncn4ccccc34)CC2)c1	< 50%
Cc1nc(CN2CCC(OCc3ccc(Cl)c(F)c3)CC2)c2ccccn12	< 50%
